The values below come from patent publication US11478469B2, “Combination product of BCL-2 inhibitor and MDM2 inhibitor and use thereof in the prevention and/or treatment of diseases” (ASCENTAGE PHARMA (SUZHOU) CO., LTD., priority 2018, dated 2022).

Type in all cases: cell-based
Assay [1] deals with OCI-AML-3 (acute myeloid leukemia (AML)). In words: CellTiter-Glo (CTG) cell proliferation assay, OCI-AML-3. Particulars: Homo sapiens; OCI-AML-3, single agent alone, 24 hours; read-out: IC50 for inhibition of proliferation. The procedure: (§1) Anti-proliferative effects were tested by CellTiter-Glo® (CTG) assay. Cells were seeded in 96-well plates and treated with different concentrations of test substance for 24 hours. […] Each test dose was tested with 3 replicate wells. Usually, 9 series of doses of the test substance were selected, and added to 96-well plates, 5 μl/well. For the combination experiment, the final volume of the two test substances was 5 μl/well. Each test dose was tested with 3 replicate wells. On the same plate, 3-6 wells were selected and added with 100 μl of dilution solution as a control group, and another 3-6 wells were used as a blank control. […] After mixing on a shaker for 2 minutes, leaving at room temperature for 10 minutes, the fluorescence value was read by using a Biotek synergy HIMF plate reader. […] For the combination test, the cell viability was calculated by normalizing the average OD value of 3 duplicate wells of the single drug control. […] Cell viability (%) values of Compound 6 alone and the combination of Compound 6 and APG-115 in the following malignant tumor cells were determined in the CTG experiment: OCI-AML-3 (acute myeloid leukemia (AML)), MV-4-11 (acute myeloid leukemia (AML)), KMS-26 (multiple myeloma (MM)), KMS-11 (multiple myeloma (MM)).
For orientation: Cellular ATP, detected with luciferase, serves as a proxy for viable cell number.

Assay [2] relates to MV-4-11 (acute myeloid leukemia (AML)). The experiment in a line: CellTiter-Glo (CTG) cell proliferation assay, MV-4-11. The conditions noted are these: Homo sapiens, MV4-11; MV-4-11, single agent alone, 24 hours; read-out: IC50 for inhibition of proliferation. The procedure: as §1
In assay [3] the test system is KMS-26 (multiple myeloma (MM)). In words: CellTiter-Glo (CTG) cell proliferation assay, KMS-26. The conditions noted are these: KMS-26, single agent alone, 24 hours; read-out: IC50 for inhibition of proliferation. The procedure: (§2) Anti-proliferative effects were tested by CellTiter-Glo® (CTG) assay. Cells were seeded in 96-well plates and treated with different concentrations of test substance for 24 hours. By using 9 different concentrations of Compound 6 (which were selected in a 3× gradient between 10-3 and 101 μM, i.e., 0.0016, 0.0045, 0.014, 0.041, 0.12, 0.36, 1.1, 3.2, 10 μM) in combination with 3 different concentrations of MDM2 inhibitor (e.g., APG-115) in action for 24 hours, the effects of Compound 6 in combination with the drug were tested. Each test dose was tested with 3 replicate wells.
(§3) Usually, 9 series of doses of the test substance were selected, and added to 96-well plates, 5 μl/well. For the combination experiment, the final volume of the two test substances was 5 μl/well. […] After mixing on a shaker for 2 minutes, leaving at room temperature for 10 minutes, the fluorescence value was read by using a Biotek synergy HIMF plate reader. Using the average fluorescence value of 3 replicate wells, the percentage of cell viability was calculated by the following formula: Cell viability (%)=(fluorescence value of test well—fluorescence value of negative control well)/(fluorescence value of vehicle control-fluorescence value of negative control group)×100%
(§4) The IC50 was calculated using the nonlinear regression data analysis method of Graphpad Prism 6.0 software ([…]). […]

Assay [4] deals with KMS-11 (multiple myeloma (MM)). In words: CellTiter-Glo (CTG) cell proliferation assay, KMS-11. The conditions noted are these: Homo sapiens; KMS-11, single agent alone, 24 hours; read-out: IC50 for inhibition of proliferation. The procedure: as §2, §3, §4

As for `CCN1[C@@H](C(=O)NC23CCC(C(=O)O)(CC2)CC3)[C@H](c2cccc(Cl)c2F)[C@]2(C(=O)Nc3cc(Cl)ccc32)C12CCCCC2` [APG-115], the figures for the IC50 in assay [1] and in assay [2] were 2.37 µM and 1.96 µM, respectively.
Consider `O=C(NS(=O)(=O)c1ccc(NC[C@H]2COCCO2)c([N+](=O)[O-])c1)c1ccc(N2CCN(CC3=C(c4ccc(Cl)cc4)CC4(CCC4)CC3)CC2)cc1Oc1cnc2[nH]ccc2c1` [Compound 6, (S)-N-((4-(((1,4-dioxan-2-yl)methyl)amino)-3-nitrophe-nyl)sulfonyl)-2-((1H-pyrrolo[2,3-b]pyridin-5-yl)oxy)-4-(4-((6-(4-chlorophenyl)spiro[3.5]non-6-en-7-yl)meth-yl)piperazin-1-yl)benzamide], for which the IC50 in assay [1] is 10.2 µM; in assay [2] it was 0.0847 µM; in assay [3] it was 14.7 µM; in assay [4] it was 10.8 µM.
